Data taken from patent publication US20090017103A1, “Antisense oligonucleotides for prevention of metastasis formation of cancer cells” (priority 2003, published 2009).

Assays:
osteopontin = experiment: Western blot of osteopontin expression after exposure to ASOs; format: cell-based, human; settings: for osteopontin expression in relation to untreated control (100%): MDA-MB231, lipofectamine, 10 μM; for reduction of osteopontin expression: MDA-MB-231
bone sialoprotein II = experiment: Western blot of bone sialoprotein II expression after exposure to ASOs; format: cell-based, human; settings: for bone sialoprotein II expression in relation to untreated control (100%): 10 μM

Row | Substance | osteopontin expression in relation to untreated control (100%) (osteopontin; single exposure) | osteopontin expression in relation to untreated control (100%) (osteopontin; twofold exposure) | reduction of osteopontin expression (osteopontin; repeated ASO exposure) | reduction of osteopontin expression (osteopontin; single exposure) | maximum inhibition of protein expression / suppression of protein level (OPN) (osteopontin; MDA-MB-231 cells, Western blot) | bone sialoprotein II expression in relation to untreated control (100%) (bone sialoprotein II; MDA-MB231, single exposure, electroporation) | bone sialoprotein II expression in relation to untreated control (100%) (bone sialoprotein II; MDA-MB231, single exposure, lipofectamine) | bone sialoprotein II expression in relation to untreated control (100%) (bone sialoprotein II; MDA-MB231, twofold exposure, lipofectamine) | bone sialoprotein II expression in relation to untreated control (100%) (bone sialoprotein II; MDA-MB231^F (growing without FBS), single exposure, lipofectamine) | bone sialoprotein II expression in relation to untreated control (100%) (bone sialoprotein II; MDA-MB435s, single exposure, lipofectamine) | maximum inhibition of protein expression / suppression of protein level (BSP II) (bone sialoprotein II; MDA-MB-231 cells, Western blot) | reduction of bone sialoprotein expression (bone sialoprotein II; single exposure) | reduction of bone sialoprotein protein level (bone sialoprotein II; twofold exposure)
1 | 5′-CTAACTTAAAAAACAAAAGA-3′ (antisense CTAACTTAAAAAACAAAAGA; all phosphorothioate, sugars by position and methylation of C not given here) [ASO-OPN-4] | 16% | 23% | 77% | 84% | 85% |  |  |  |  |  |  |  | 
2 | 5′-GCT-TTC-TTC-GTT-TTC-ATT-TC-3′ [ASO-BSPII-6] |  |  |  |  |  | 16% | 33% | 15% | 79% | 0% | 75% | 84% | 81%
